In patent US5874469A, “Fluoroalkyl hydrocarbons for administering water insoluble or unstable drugs” (Alcon Laboratories, Inc., priority 1996, dated 1999):
Converted amounts (≈) assume the structure as drawn.

Assays:
[1] = Storage stability (hydrolysis) of leflunomide in 12205-1, HPLC; type: physicochemical; conditions: 60° C. in an oven, FIG. 2b
Procedure: The suspension was filtered and the filtrate was put on stability testing at 60° C. in an oven. 100 μL of sample was withdrawn as a function of time. The vehicle was evaporated and the residual sample was reconstituted in 1 mL of the mobile phase for leflunomide. The sample was analyzed by HPLC to determine the leflunomide content. […] The composition is therefore expected to be stable during storage.

[2] = Solubility of leflunomide in fluoroalkyl hydrocarbon vehicle (filtration, extraction into mobile phase, HPLC); conditions: 12205-1 perfluoro ester, organic solvent or mixture
Procedure: (§1) 0.01847 g of leflunomide was added to 1 mL of perfluorooctanol ("PFO"). The suspension was sonicated for 15 minutes. The suspension was filtered through a 0.45μ filter and 100 μL of the filtrate was extracted with 1 mL of the mobile phase for leflunomide. The mobile phase consisted of 40:60 of acetonitrile: 0.01m NaH2 PO4 adjusted to pH 7.0. 10 μL of the extract was injected on to a C-18 reverse phase column. The sample was eluted with the mobile phase with a flow rate of 2 mL/minute and monitored at 254 nm.
(§2) 0.00207 g of leflunomide was added to 1 mL of perfluoro-2-methyl-oxahexanoic acid, methyl ester (12205-1). The suspension was filtered through a 0.45μ filter and 100 μL of the filtrate was extracted with 1 mL of the mobile phase of leflunomide. 10 μL of the extract was injected on to HPLC to determine the solubility of leflunomide.

[3] = physchem; conditions: perfluorooctanol, organic solvent or mixture
Procedure: as §1, §2

[4] = Storage stability (hydrolysis) of cabergoline in 12205-1, HPLC; type: physicochemical; conditions: room temperature, 40° C. and 50° C., FIG. 1b
Procedure: 0.0056 g of cabergoline was weighed in a vial. […] The mixture was vortexed well and then sonicated for 30 minutes. The suspension was filtered through a 0.2μ acrodisc. The filtrate was split into 3 vials. The vials were stored at room temperature ("RT"), 40° C. and 50° C. The vial stored at room temperature was wrapped in aluminum foil. 100 μL of sample was withdrawn as a function of time. 1 mL of pH 3.0 phosphate buffer was added to the sample and vortexed. The supernatant was taken and analyzed by HPLC as described above.

[5] = physchem; conditions: organic solvent or mixture
Procedure: 0.00471 grams ("g") of cabergoline was added to 1 milliter ("mL") of perfluorooctanol (PFO). The suspension was sonicated for 15 minutes and then filtered through a 0.45μ filter. 100 microliters ("μL") of the filtrate was extracted with 1 mL of phosphate buffer (pH 3.0). 10 μL of the aqueous portion was analyzed for cabergoline by injecting in onto the HPLC. The mobile phase was made as follows:
5.2 mL of concentrated phosphoric acid, 6.0 mL of tetrabutyl ammonium hydroxide, and 6.612 g of dibasic ammonium phosphate were added to 1500 mL of deionized water. The mixture was stirred until it formed a clear solution. To the above solution 1800 mL of acetonitrile, 400 mL of tetrahydrofuran and sufficient water were added to make 4 liters of mobile phase. The mobile phase was pumped at 1.5 mL/minute through a cyano column. The eluent was monitored at 280 nanometers ("nm").
0.00126 g of cabergoline was added to 1 mL of perfluoro-2-methyl-oxahexanoic acid, methyl ester ("12205-1"). The suspension was sonicated for 15 minutes and then filtered through a 0.45μ filter. 100 μL of the filtrate was extracted with 1 mL of phosphate buffer (pH 3.0). 10 μL of the aqueous portion was analyzed for cabergoline by injecting it onto the HPLC.

[6] = Solubility of dipivefrin in 12205-1 (excess drug stirred 30 minutes, filtered, extracted with pH 3.0 phosphate buffer); type: physicochemical; conditions: 12205-1 perfluoro ester, organic solvent or mixture, vehicle 12205-1, excess dipivefrin alone, 0.2μ filter
Procedure: The solution was filtered through a 0.2μ filter and 100 μl of the sample was extracted with phosphate buffer (pH 3.0). The aqueous portion was analyzed for dipivefrin.

[7] = Solubility of betaxolol and dipivefrin, dissolved together, in 12205-1 (extraction into pH 3.0 phosphate buffer, reverse phase HPLC); conditions: 12205-1 perfluoro ester, organic solvent or mixture
[8] = physchem; conditions: 12205-1 perfluoro ester, organic solvent or mixture

For Cc1oncc1C(=O)Nc1ccc(C(F)(F)F)cc1 [leflunomide], the “hydrolysis of leflunomide on storage” value [1] was “no hydrolysis”, the solubility [2] was 238 µg/mL (≈ 881 µM) and the solubility [3] was 2000 µg/mL (≈ 7400 µM).

In the case of C=CCN1C[C@H](C(=O)N(CCCN(C)C)C(=O)NCC)C[C@@H]2c3cccc4[nH]cc(c34)C[C@H]21 [cabergoline], the “hydrolysis of cabergoline on storage” value [4] is reported as “no hydrolysis”, the solubility ([5]; 12205-1 perfluoro ester) is reported as 1040 µg/mL (≈ 2290 µM) and the solubility ([5]; perfluorooctanol) is reported as 2700 µg/mL (≈ 5980 µM).

With CNCC(O)c1ccc(OC(=O)C(C)(C)C)c(OC(=O)C(C)(C)C)c1 (stereo not drawn) [dipivefrin] the solubility at 0.5 h [6] was over 1000 µg/mL and the solubility [7] was over 1000 µg/mL.

With CC(C)NCC(O)COc1ccc(CCOCC2CC2)cc1 (stereo not drawn) [betaxolol] the solubility [8] was over 1000 µg/mL.
